Results as given in ChEMBL document CHEMBL1201862, “PubChem BioAssay data set” (2004).
Calls of active or inactive are those of the source.

What was measured:
[1] = cytotoxicity in HEK-293T cells, dose response, cytotoxicity control for BCR NF-kB inhibitor project, luminescence, B-cell screen hits (AID 489021); type: functional, cell-based;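 note: HEK-293T cells carrying an NF-kB luciferase reporter; cells exposed to compound for about 14 hours before viability readout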
[2] = target: T1, Short transient receptor potential channel 4 (Mus musculus, UniProt Q9QUQ5); assay: mouse TRPC4 channel inhibitors, dose response, cell-based, HEK293 TRPC4/mu-opioid, Fluo-4 calcium (AID 434942); type: functional;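 note: potency of inhibitors blocking the TRPC4 calcium response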
T1 sequence (Q9QUQ5 whole entry): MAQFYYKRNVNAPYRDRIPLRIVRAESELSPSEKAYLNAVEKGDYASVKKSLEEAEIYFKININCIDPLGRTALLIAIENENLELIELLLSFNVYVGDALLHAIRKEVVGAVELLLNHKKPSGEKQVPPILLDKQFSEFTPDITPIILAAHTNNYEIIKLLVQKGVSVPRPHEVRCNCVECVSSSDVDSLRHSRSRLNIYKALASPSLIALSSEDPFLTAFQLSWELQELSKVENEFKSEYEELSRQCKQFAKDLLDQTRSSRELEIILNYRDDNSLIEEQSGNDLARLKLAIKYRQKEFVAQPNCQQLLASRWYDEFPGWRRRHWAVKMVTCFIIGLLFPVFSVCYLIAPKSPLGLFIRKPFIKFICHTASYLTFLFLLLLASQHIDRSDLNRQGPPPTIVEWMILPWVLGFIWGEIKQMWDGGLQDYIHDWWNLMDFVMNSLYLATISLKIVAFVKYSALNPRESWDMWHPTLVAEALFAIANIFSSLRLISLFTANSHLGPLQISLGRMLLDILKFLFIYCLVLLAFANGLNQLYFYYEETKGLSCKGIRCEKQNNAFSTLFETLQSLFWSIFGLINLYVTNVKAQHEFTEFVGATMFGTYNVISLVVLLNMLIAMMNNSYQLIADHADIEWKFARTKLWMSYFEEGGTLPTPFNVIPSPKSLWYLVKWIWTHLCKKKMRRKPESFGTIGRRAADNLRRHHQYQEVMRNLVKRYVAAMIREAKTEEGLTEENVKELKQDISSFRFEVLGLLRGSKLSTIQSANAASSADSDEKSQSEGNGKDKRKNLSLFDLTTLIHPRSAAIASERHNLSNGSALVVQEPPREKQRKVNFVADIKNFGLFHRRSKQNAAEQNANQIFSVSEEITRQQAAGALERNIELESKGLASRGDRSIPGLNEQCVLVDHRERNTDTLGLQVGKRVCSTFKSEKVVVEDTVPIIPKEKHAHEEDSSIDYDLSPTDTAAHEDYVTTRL

HEK293 [3] = assay: NOD1 signaling inhibitors, primary screen, cell-based, luminescence, uHTS (AID 1578); type: functional; conditions: Homo sapiens
HEK293 [4] = assay: cells; type: functional, cell-based; conditions: Homo sapiens
HEK293 [5] = assay: cells; type: functional, cell-based; conditions: Homo sapiens; remark: listed apart in the source
HEK293 [6] = assay: NOD2 signaling inhibitors in MDP-stimulated cells, cell-based, uHTS, luminescence (AID 2001); type: functional; conditions: Homo sapiens
[7] = target: Eukaryotic translation initiation factor 4E (Mus musculus, UniProt P63073); assay: eIF4E–eIF4G protein interaction inhibitors, dose response, biochemical, TR-FRET (AID 855); type: functional;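 note: potency for disrupting eIF4E binding to eIF4GI seen as loss of FRET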
Sequence of Eukaryotic translation initiation factor 4E (P63073 whole entry): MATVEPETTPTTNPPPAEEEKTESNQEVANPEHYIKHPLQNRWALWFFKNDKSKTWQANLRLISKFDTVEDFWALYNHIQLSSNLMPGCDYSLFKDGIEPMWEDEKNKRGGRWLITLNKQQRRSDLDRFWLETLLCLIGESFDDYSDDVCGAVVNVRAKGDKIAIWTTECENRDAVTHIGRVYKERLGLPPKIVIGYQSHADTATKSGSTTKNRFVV

Genome polyprotein = Genome polyprotein (dengue virus type 2, UniProt P29990); assay: Dengue-2 NS5 methyltransferase inhibitors, primary screen, biochemical, confirmation dose response (AID 588689); type: functional
Sequence of Genome polyprotein (P29990 2492-3391 limits assumed): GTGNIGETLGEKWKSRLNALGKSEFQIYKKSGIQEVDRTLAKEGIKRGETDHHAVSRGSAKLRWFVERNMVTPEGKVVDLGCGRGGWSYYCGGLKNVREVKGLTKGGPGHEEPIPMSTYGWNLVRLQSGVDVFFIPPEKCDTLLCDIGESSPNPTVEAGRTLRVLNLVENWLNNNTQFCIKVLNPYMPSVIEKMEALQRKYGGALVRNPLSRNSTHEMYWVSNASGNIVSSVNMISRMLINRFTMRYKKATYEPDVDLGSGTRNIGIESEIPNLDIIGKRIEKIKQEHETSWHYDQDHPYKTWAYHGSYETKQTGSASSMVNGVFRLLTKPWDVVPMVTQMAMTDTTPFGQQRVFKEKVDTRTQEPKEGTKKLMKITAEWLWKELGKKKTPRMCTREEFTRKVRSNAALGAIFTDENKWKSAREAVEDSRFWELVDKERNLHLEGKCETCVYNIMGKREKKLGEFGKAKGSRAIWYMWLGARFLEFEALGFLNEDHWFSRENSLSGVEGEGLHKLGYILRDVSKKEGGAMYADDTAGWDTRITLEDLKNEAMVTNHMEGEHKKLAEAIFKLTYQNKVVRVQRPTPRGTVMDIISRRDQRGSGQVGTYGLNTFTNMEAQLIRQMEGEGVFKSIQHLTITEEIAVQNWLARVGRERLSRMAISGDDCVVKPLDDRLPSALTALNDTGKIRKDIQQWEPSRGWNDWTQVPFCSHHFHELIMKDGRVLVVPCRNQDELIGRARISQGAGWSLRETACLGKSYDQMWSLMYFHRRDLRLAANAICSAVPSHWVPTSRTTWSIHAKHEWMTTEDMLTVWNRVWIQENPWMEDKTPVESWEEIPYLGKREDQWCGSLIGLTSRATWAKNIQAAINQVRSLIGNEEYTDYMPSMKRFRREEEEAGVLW

[8] = inhibitors of firefly luciferase expression or activity, dose response, H4 neuroglioma cells, luminescence (AID 1990); type: functional, cell-based
[9] = Luminescence Cell-Based Dose Response HTS to Identify Inhibitors of 5'UTR Stem-Loop Driven Prion Protein mRNA Translation in H4 Neuroglioblastoma Cells. [Related pubchem assays: 1827 (Project Summary), 1813 (Primary HTS)]; type: functional
[10] = inhibitors of SNCA 5'UTR-driven reporter translation, confirmation, H4 neuroglioma cells, luminescence (AID 1988); type: functional, cell-based
Paired box protein Pax-8 = Paired box protein Pax-8 (Homo sapiens, UniProt Q06710); assay: inhibitors of PAX8-driven TPO luciferase reporter, dose response, RMG-I cells, cherry-pick (AID 687027); type: functional, cell-based;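 note: luciferase reporter driven by Pax8 target thyroperoxidase promoter measured by SteadyGlo luminescence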
Sequence of Paired box protein Pax-8 (Q06710 whole entry): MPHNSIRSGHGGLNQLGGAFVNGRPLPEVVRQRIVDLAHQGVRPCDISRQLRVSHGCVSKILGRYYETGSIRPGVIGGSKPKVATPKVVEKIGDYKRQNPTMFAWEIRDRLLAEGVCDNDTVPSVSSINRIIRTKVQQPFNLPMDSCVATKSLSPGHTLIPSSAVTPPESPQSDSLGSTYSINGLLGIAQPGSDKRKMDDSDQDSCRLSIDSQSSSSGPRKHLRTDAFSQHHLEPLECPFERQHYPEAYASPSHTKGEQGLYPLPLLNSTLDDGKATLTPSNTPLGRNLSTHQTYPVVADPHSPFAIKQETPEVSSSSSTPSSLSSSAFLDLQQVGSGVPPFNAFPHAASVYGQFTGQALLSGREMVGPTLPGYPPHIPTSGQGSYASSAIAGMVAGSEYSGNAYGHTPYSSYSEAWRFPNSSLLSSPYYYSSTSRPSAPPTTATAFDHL

[11] = Luminescence Cell-Based Dose Confirmation HTS to Identify Activators of 5'UTR Stem-Loop Driven Alpha-Synuclein mRNA Translation in H4 Neuroglioblastoma Cells. [Related pubchem assays: 1829 (Project Summary), 1814 (Primary HTS)]; type: functional
[12] = Luminescence Cell-Based Dose Response HTS to Identify Activators of Luciferase Translation or Activity in H4 […] Cells. [Related pubchem assays: 1829 (Project Summary), 1814 (Primary HTS)]; type: functional
H4 = assay: Luminescence Cell-Based Dose Response HTS to Identify Activators of 5'UTR Stem-Loop Driven Prion Protein mRNA Translation in H4 Neuroglioblastoma Cells. [Related pubchem assays: 1829 (Project Summary), 1814 (Primary HTS)]; type: functional; conditions: Homo sapiens
[13] = CEM21 lymphoblast cell cytotoxicity, dose response, cytotoxicity control for viral fusion inhibitor project, CellTiter-Glo luminescence, cherry-picked (AID 652042); type: functional, cell-based;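 note: potency for signal decrease meaning cytotoxicity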
[14] = off-target signal loss in HeLa-CEM21 co-culture – HeLa F-luc CTL cells, cherry-picked, counter-screen for HIV-1 Env fusion inhibitor project, dose response (AID 652040); type: functional, cell-based;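 note: potency for signal decrease marking cytotoxic or nonspecific inhibition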
[15] = inhibitors of clade B AD8 Env fusion, dose response, cell-based, cherry-pick (AID 652062); type: functional;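 note: luciferase signal from cell-cell fusion driven by HIV-1 clade B AD8 Env; potency is for inhibitors of fusion seen as a drop in luminescence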
[16] = inhibitors of intracellular T. cruzi replication, confirmation, NIH3T3 host cells, beta-gal luminescence (AID 2044); type: functional, cell-based;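 note: intracellular parasites grown in NIH/3T3 mouse fibroblasts as host cells; luminescent beta-galactosidase reporter signal from transgenic T. cruzi replicating inside host cells; inhibitors lower the luminescence signal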
[17] = cytotoxicity toward NIH3T3 fibroblasts, dose response, counter-screen, cell-based, ATP luminescence, mouse fibroblasts (AID 2010); type: functional;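 note: cells exposed to compound for about 90 hours before reading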
[18] = target: T2, DNA repair protein RAD52 homolog (Homo sapiens, UniProt P43351); type: functional, biochemical
T2 sequence (P43351 whole entry): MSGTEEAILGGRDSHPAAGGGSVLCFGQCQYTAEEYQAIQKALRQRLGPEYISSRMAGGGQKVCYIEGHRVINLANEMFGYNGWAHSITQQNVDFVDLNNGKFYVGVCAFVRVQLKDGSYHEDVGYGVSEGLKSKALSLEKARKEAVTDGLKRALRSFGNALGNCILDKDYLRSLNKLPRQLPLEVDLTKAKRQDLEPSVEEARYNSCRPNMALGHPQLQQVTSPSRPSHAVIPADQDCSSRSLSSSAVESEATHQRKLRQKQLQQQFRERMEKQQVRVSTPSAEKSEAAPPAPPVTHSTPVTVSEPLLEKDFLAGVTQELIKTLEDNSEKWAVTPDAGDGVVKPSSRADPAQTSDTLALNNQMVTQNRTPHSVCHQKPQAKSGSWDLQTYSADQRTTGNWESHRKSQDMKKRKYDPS

[19] = NIH-3T3 fibroblast cytotoxicity, dose response, cytotoxicity control, cell-based, fluorescence, Alamar Blue, secondary assay (AID 2327); type: functional;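 note: NIH-3T3 mouse fibroblasts cultured with fluconazole at 8 µg/mL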
[20] = C. albicans growth with fluconazole, confirmation, fluorescence, retest (AID 2467); type: functional, cell-based
Nonstructural protein 1 = Nonstructural protein 1 (Influenza A virus, UniProt Q194T2); type: functional, Influenza A virus (A/California/07/2009(H1N1))
Sequence of Nonstructural protein 1 (Q194T2 whole entry): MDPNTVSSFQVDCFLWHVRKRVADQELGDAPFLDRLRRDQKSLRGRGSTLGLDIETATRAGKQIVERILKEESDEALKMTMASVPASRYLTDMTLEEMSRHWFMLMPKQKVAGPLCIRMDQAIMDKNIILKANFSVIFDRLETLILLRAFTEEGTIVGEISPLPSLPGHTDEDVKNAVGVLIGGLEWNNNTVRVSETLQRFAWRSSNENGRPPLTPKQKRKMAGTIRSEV

INS1 = assay: beta cell apoptosis inhibitors, cytokine rescue, dose response, luminescence, retest (AID 449756); type: functional, cell-based; conditions: Rattus norvegicus;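 note: cell death triggered by IL-1 beta plus TNF-alpha plus IFN-gamma mixture; protective hits raise ATP signal compared with cytokine alone wells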
[21] = A549 cell cytotoxicity, dose response, cytotoxicity control, plate reader, cherry-pick, antagonist series (AID 743412); type: functional, cell-based
[22] = HepG2 cell cytotoxicity, dose response, cytotoxicity control, plate reader, cherry-pick, antagonist series (AID 743416); type: functional, cell-based
[23] = HEK293 cell cytotoxicity, dose response, cytotoxicity control, plate reader, cherry-picked samples (AID 743446); type: functional, cell-based
[24] = Luminescence Cell-Based Dose Retest to Confirm Inhibitors of Cancer Stem Cells. [Related pubchem assays (depositor defined):AID2717, AID2721]; type: functional; conditions: Homo sapiens
HEK293 [25] = assay: inhibitors of LMP1-driven NF-kB reporter, dose response, cell-based, HEK293, luciferase, cherry-pick (AID 588343); type: functional; conditions: Homo sapiens
[26] = LGR2 antagonists, dose response, cell-based, HEK293, CRE-luciferase reporter, cherry pick, set 2 (AID 743343); type: functional;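 note: transfected cells were stimulated with diluted bursicon conditioned medium after compound addition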
[27] = MC4R antagonists, dose response, counter-screen for LGR2 antagonist project, cell-based, plate reader, cherry pick (AID 743444); type: functional;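 note: transfected HEK 293 cells stimulated with alpha-MSH peptide; potency of inhibitors of the alpha-MSH evoked signal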

## CCn1c(=O)cc(OCC(=O)NCc2ccc(C)o2)c2ccccc21
[1]
  IC50: > 80 µM (inactive)

## O=C(C[N+]1(CC#Cc2ccccc2)CCCCC1)c1ccc(Cl)cc1
[2]
  EC50: 7.5 µM (active)

## Oc1cc(-c2ccccc2)nc2cc(-c3ccc(Br)cc3)nn12
HEK293 [3]
  EC50: 10.8 µM (active)
HEK293 [4]
  IC50: 16.9 µM (active)
HEK293 [5]
  IC50: > 20 µM (inactive)
HEK293 [6]
  IC50: 5.12 µM (inactive)

## Cc1ccc(C)c(NC(S)=NCCN(C2CCCCC2)C2CCCC2)c1
[7]
  IC50: 50 µM (inactive)

## CCCCOc1ccc(Nc2cc(Cl)ccc2C(=O)O)cn1
[2]
  EC50: 10.6 µM (active)
Genome polyprotein
  IC50: 59.8 µM (active)

## O=C(NCCC1CCCCN1S(=O)(=O)c1ccc(Cl)cc1)C(=O)NCc1ccncc1 (centres undefined)
[8]
  EC50: 15.5 µM (active)
[9]
  EC50: 20.8 µM (active)
[10]
  EC50: 9.38 µM (active)
[1]
  IC50: > 80 µM (inactive)
Paired box protein Pax-8
  AC50: 3.27 µM (active)

## Cc1nnc(SC(=O)N2c3ccccc3Sc3ccccc32)s1
[11]
  EC50: > 120 µM (not active)
[12]
  EC50: > 60 µM (not active)
H4
  EC50: > 120 µM (not active)
[13]
  AC50: 10.6 µM (active)
[14]
  AC50: 30.8 µM (active)
[15]
  AC50: 3.79 µM (active)

## CCOC(=O)c1c(C)n(CC(O)CN(C)C)c2cc(Br)c(OC)cc12 (centres undefined)
[16]
  EC50: 685 nM (active)
[17]
  EC50: > 60 µM (not active)
[18]
  AC50: 10.1 µM (active)

## Cc1cc(C)cc(NC(=N)Nc2nc(C)cc(C)n2)c1
[2]
  EC50: 2.99 µM (active)

## Cc1ccc(C)c(OCc2ccc(C(=O)NN)o2)c1
[1]
  IC50: > 80 µM (inactive)

## N#CC1=C(N)Oc2c(ccc3cccnc23)C1c1cccnc1 (centres undefined)
[19]
  EC50: 22.1 µM (active)
[20]
  EC50: 1.18 µM (active)
Nonstructural protein 1
  IC50: 56.6 µM (active)
INS1
  AC50: 3.17 µM (active)

## O=C(CSc1[nH]cnc2nncc1-2)Nc1nc(-c2ccc(F)c(F)c2)cs1
[21]
  AC50: 46.1 µM (active)
[22]
  AC50: > 52 µM (inactive)
[23]
  AC50: > 52 µM (inactive)

## COc1cccc(/C=C/c2ccc3ccccc3n2)c1OC(C)=O
[24]
  AC50: 6.67 µM (active)
HEK293 [25]
  AC50: 1.87 µM (active)
[21]
  AC50: 25.3 µM (active)
[22]
  AC50: 33.3 µM (active)
[26]
  AC50: 2.77 µM (active)
[27]
  AC50: 2.59 µM (active)
[23]
  AC50: 30.1 µM (active)
